According to patent US20110009343A1, “MODULATORS OF AMYLOID AGGREGATION” (Praecis Pharmaceuticals, Inc., priority 1995, published 2011):
Ends that are not written are not given here.

Experiments:
cultured neuronal cells = test: Neurotoxicity of Aβ1-40 preparations with or without modulator (MTT), cell line not specified; format: cell-based; conditions: compared with delay of polymerization in nucleation assay
Description: The neurotoxicity of natural β-amyloid peptide aggregates, in either the presence or absence of a β-amyloid modulator, is tested in a cell-based assay using either a rat or human neuronally-derived cell line (PC-12 cells or NT-2 cells, respectively) and the viability indicator 3,(4,4-dimethylthiazol-2-yl)2,5-diphenyl-tetrazolium bromide (MTT). […] MTT (commercially available from Sigma Chemical Co.) is a chromogenic substrate that is converted from yellow to blue in viable cells, which can be detected spectrophotometrically.
To test the neurotoxicity of natural β-amyloid peptides, stock solutions of fresh Aβ monomers and aged Aβ aggregates were first prepared. […] Peptide prepared in this way and tested immediately on cells is referred to as “fresh” Aβ monomer. To prepare “aged” Aβ aggregates, peptide solution was placed in a 1.5 ml Eppendorf tube and incubated at 37° C. for eight days to allow fibrils to form. Such “aged” Aβ peptide can be tested directly on cells or frozen at −80° C. The neurotoxicity of fresh monomers and aged aggregates were tested using PC12 and NT2 cells. PC 12 cells were routinely cultured in Dulbeco's modified Eagle's medium (DMEM) containing 10% horse serum, 5% fetal calf serum, 4 mM glutamine, and 1% gentamycin. NT2 cells were routinely cultured in OPTI-MEM medium (GIBCO BRL CAT. #31985) supplemented with 10% fetal calf serum, 2 mM glutamine and 1% gentamycin. Cells were plated at 10-15,000 cells per well in 90 μl of fresh medium in a 96-well tissue culture plate 3-4 hours prior to treatment. The fresh or aged Aβ peptide solutions (10 μL) were then diluted 1:10 directly into tissue culture medium so that the final concentration was in the range of 1-10 μM peptide. Cells are incubated in the presence of peptide without a change in media for 48 hours at 37° C. For the final three hours of exposure of the cells to the β-AP preparation, MTT was added to the media to a final concentration of 1 mg/ml and incubation was continued at 37° C. Following the two hour incubation with MTT, the media was removed and the cells were lysed in 100 μL isopropanol/0.4N HCl with agitation. An equal volume of PBS was added to each well and the plates were agitated for an additional 10 minutes. Absorbance of each well at 570 nm was measured using a microtiter plate reader to quantitate viable cells.

Aβ1-40 = target: T1, Aβ1-40 (Homo sapiens, UniProt P05067); test: Nucleation assay (turbidity, A405 nm); format: biochemical; conditions: for ΔLag (ratio of lag time with test compound to lag time of control) / inhibition at 100 mol %: Table V; for ΔLag (ratio of lag time with test compound to lag time of control): 100 mole % inhibitor relative to Aβ1-40; for inhibition at 100 mol %: 100 mole % inhibitor, read-out: % Inucl'n (percent reduction in maximum observed turbidity);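 on all read-outs here: synthetic Aβ monomer polymerization followed by turbidity in 96-well plates with continuous shaking, read every 15 minutes over 5 hours, compared against wells lacking test compound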
T1 construct: (β-AP1-40) was obtained commercially from Bachem (Torrance, Calif.); purchased Bachem (Torrance, Calif.)
T1 sequence (P05067 672-711): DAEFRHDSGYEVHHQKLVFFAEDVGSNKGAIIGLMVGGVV
Description: The nucleation assay is employed to determine the ability of test compounds to alter (e.g. inhibit) the early events in formation of β-AP fibers from monomeric β-AP. […] The time delay before polymerization of β-AP monomer can be quantified as well as the extent of formation of insoluble fiber by light scattering (turbidity). Polymerization reaches equilibrium when the maximum turbidity reaches a plateau. The turbidity of a solution of natural β-AP in the absence or presence of various concentrations of a β-amyloid modulator compound is determined by measuring the apparent absorbance of the solution at 405 nm (A405 nm) over time. The threshold of sensitivity for the measurement of turbidity is in the range of 15-20 μM β-AP. […] This assay can be performed using stirring or shaking to accelerate polymerization, thereby increasing the speed of the assay. Moreover the assay can be adapted to a 96-well plate format to screen multiple compounds.
HFIP-solubilized peptide is sonicated in a waterbath sonicator for 5 mM at highest setting, then evaporated to dryness under a stream of argon. The peptide film is resuspended in anhydrous dimethylsulfoxide (DMSO) at a concentration of 6.9 mg/ml (25× concentration), sonicated for 5 mM as before, then filtered through a 0.2 micron nylon syringe filter (VWR cat. No. 28196-050). Test compounds are dissolved in DMSO at a 100× concentration. […] Ten microliters of the mixture is then added to the bottom of a well of a Corning Costar ultra low binding 96-well plate (Corning Costar, Cambridge Mass.; cat. No. 2500). Ninety microliters of water is added to the well, the plate is shaken on a rotary shaken at a constant speed at room temperature for 30 seconds, an additional 100 μl of 2×PTL buffer (20 mM NaH2PO4, 300 mM NaCl, pH 7.4) is added to the well, the plate is reshaken for 30 seconds and a baseline (t=0) turbidity reading is taken by measuring the apparent absorbance at 405 nm using a Bio-Rad Model 450 Microplate Reader. The plate is then returned to the shaker and shaken continuously for 5 hours. Turbidity readings are taken at 15 minute intervals.
β-amyloid aggregation in the absence of any modulators results in enhanced turbidity of the natural β-AP solution (i.e., an increase in the apparent absorbance at 405 nm over time).
Accordingly a fold increase in lag time of 1.0 indicates no change in lag time, whereas numbers >1.0 indicate an increase in lag time. The “% inhibition of plateau”, which is a measure of the ability of the compound to decrease the total amount of aggregation, refers to the reduction of the final turbidity in the presence of the test compound expressed as a percent of the control without the test compound.

Aβ(1-40) peptide [1] = target: T2, Aβ(1-40) peptide (Homo sapiens, UniProt P05067); test: Shaken plate aggregation assay (absorbance 405 nm); format: biochemical; conditions: % conc relative to Aβ(1-40) as printed in cell
T2 construct: (β-AP1-40) was obtained commercially from Bachem (Torrance, Calif.); purchased Bachem (Torrance, Calif.)
T2 sequence (P05067 672-711): as above
Description: HFIP solubilized peptide was sonicated in a waterbath sonicator for 5 mM at highest setting, then evaporated to dryness under a stream of argon. The peptide film was resuspended in anhydrous dimethylsulfoxide (DMSO) at a concentration of 6.9 mg/ml, sonicated for 5 mM as before, then filtered through a 0.2 micron nylon syringe filter (VWR cat. No. 28196-050).
Candidates were assayed in triplicate. […] Into an ultra low binding 96 well plate (Corning Costar cat. No. 2500, Cambridge Mass.) 100 rtl PTL buffer (150 mM NaCl, 10 mM NaH2PO4; pH 7.4) was aliquotted per well. For each candidate, 10 μl of peptide mixture in DMSO was aliquotted into each of three wells containing buffer. The covered plate was vigorously vortexed on a plate shaker at high speed for 30 seconds. An additional 100 μl of PTL buffer was added to each well and again the plate was vortexed vigorously for 30 sec. Absorbance at 405 nm was immediately read in a plate reader for a baseline reading. The plate was returned to the plate shaker and vortexed at moderate speed for 5 hours at room temperature, with absorbance readings taken at 15-20 mM intervals. Increased absorbance indicated aggregation.

Aβ(1-40) peptide [2] = target: T2, Aβ(1-40) peptide; test: Seeded static assay (SSA), Thioflavin-T fluorescence; format: biochemical; conditions: inhibitor tested at 100 μM and 10 μM
Description: The peptide was dissolved in 1/25 volume of dimethysulfoxide (DMSO), followed by water to 1/2 volume and 1/2 volume 2×PBS (10×PBS: NaCl 137 mM, KCl 2.7 mM Na2HPO4.7H2O 4.3 mM, KH2PO4 1.4 mM pH 7.2) to a final concentration of 200 μM.
To prepare a stock seed, 1 ml of the above Aβ monomer preparation, was incubated for 8 days at 37° C. and sheared sequentially through an 18, 23, 26 and 30 gauge needle 25, 25, 50, and 100 times respectively. 2 μl samples of the sheared material was taken for fluorescence measurements after every 50 passes through the 30 gauge needle until the fluorescence units (FU) had plateaued (approx. 100-150×).
To prepare a candidate inhibitor, the required amount of candidate inhibitor was weighed out and the stock dissolved in 1×PBS to a final concentration of 1 mM (10× stock). If insoluble, it was dissolved in 1/10 volume of DMSO and diluted in 1×PBS to 1 mM. […]
For the aggregation assay, each sample was set up in triplicate [50 μl of 200 μM monomer, 125 FU sheared seed (variable quantity dependent on the batch of seed, routinely 3-6 μl), 10 μl of 10× inhibitor solution, final volume made up to 100 μl with 1×PBS]. […] The assay was incubated at 37° C. for 6 h, taking 2 μl samples hourly for fluorescence measurements. To measure fluorescence, a 2 μl sample of Aβ was added to 400 μl of Thioflavin-T solution (50 mM Potassium Phosphate 10 mM Thioflavin-T pH 7.5).

β-AP1-40 = target: T3, β-AP1-40 (Homo sapiens, UniProt P05067); test: Static aggregation assay (SDS-PAGE); format: biochemical
T3 construct: (β-AP1-40) was obtained commercially from Bachem (Torrance, Calif.); purchased Bachem (Torrance, Calif.)
T3 sequence (P05067 672-711): as above
Description: In a third assay, β-AP aggregation was measured by visualization of the peptide aggregates using SDS-polyacrylamide gel electrophoresis (SDS-PAGE). In this assay, β-AP solutions were allowed to aggregate over a period of time and then aliquots of the reaction were run on a standard SDS-PAGE gel. Typical solution conditions were 200 μM of β-AP1-40 in PBS at 37° C. for 8 days or 200 μM β-AP1-40 in 0.1 M sodium acetate at 37° C. for 3 days. The peptide aggregates were visualized by Coomassie blue staining of the gel or, for β-AP solutions that included a biotinylated β-AP modulator, by western blotting of a filter prepared from the gel with a streptavidin-peroxidase probe, followed by a standard peroxidase assay. The β-AP aggregates are identifiable as high molecular weight, low mobility bands on the gel, which are readily distinguishable from the low molecular weight, high mobility β-AP monomer or dimer bands.

natural β-AP (β-AP1-40) = target: T4, natural β-AP (β-AP1-40) (Homo sapiens, UniProt P05067); test: Optical density (turbidity, A400 nm) aggregation assay; format: biochemical
T4 construct: (β-AP1-40) was obtained commercially from Bachem (Torrance, Calif.); purchased Bachem (Torrance, Calif.)
T4 sequence (P05067 672-711): as above
Description: In one assay, β-AP aggregation was measured by determining the increase in turbidity of a solution of natural β-AP over time in the absence or presence of various concentrations of the modulator. Turbidity of the solution was quantitated by determining the optical density at 400 nm (A400 nm) of the solution over time.
The aggregation of natural β-AP in the absence of modulator was determined as follows. β-AP1-40 was dissolved in hexafluoro isopropanol (HFIP; Aldrich Chemical Co., Inc.) at 2 mg/ml. Aliquots of the HFIP solution (87 μl) were transferred to individual 10 mm×75 mm test tubes. A stream of argon gas was passed through each tube to evaporate the HFIP. To the resulting thin film of peptide, dimethylsulfoxide (DMSO; Aldrich Chemical Co., Inc.) (25 μl) was added to dissolve the peptide. A 2 mm×7 mm teflon-coated magnetic stir bar was added to each tube. Buffer (475 μL of 100 mM NaCl, 10 mM sodium phosphate, pH 7.4) was added to the DMSO solution with stiffing. The resulting mixture was stirred continuously and the optical density was monitored at 400 nm to observe the formation of insoluble peptide aggregates.
Alternatively, β-AP1-40 was dissolved in DMSO as described above at 1.6 mM (6.9 mg/ml) and aliquots (25 μl) were added to stirred buffer (475 μl), followed by monitoring of absorbance at 400 nm […]

| Compound | delay of the appearance of neurotoxicity relative to control (cultured neuronal cells) | Fold Increase in Lag Time (Aβ1-40; Table IV, 10 mole %) | ΔLag (ratio of lag time with test compound to lag time of control) (Aβ1-40) | inhibition at 100 mol % (Aβ1-40) | Fold Increase in Lag Time (Aβ1-40; Table IV, 100 mole %) | also measured |
| --- | --- | --- | --- | --- | --- | --- |
| CC(C)C[C@H](NC(=O)[C@H](CCCCN)NC(=O)CC[C@@H](C)[C@H]1CC[C@H]2[C@@H]3[C@H](O)C[C@@H]4C[C@H](O)CC[C@]4(C)[C@H]3C[C@H](O)[C@]12C)C(=O)N[C@H](C(=O)N[C@@H](Cc1ccccc1)C(=O)N[C@@H](Cc1ccccc1)C(N)=O)C(C)C [PPI-319, cholyl-Aβ16-20-amide] | coincided with the delay in the time at which polymerization of Aβ began | 2.7 fold | 5.4 | 70% | – | Fold Increase in Lag Time (Aβ1-40; Table IV, 33 mole %): 5.6 fold |
| CC(C)C[C@H](NC(=O)[C@H](CCCCN)NC(=O)[C@H](CCC(N)=O)NC(=O)CC[C@@H](C)[C@H]1CC[C@H]2[C@@H]3[C@H](O)C[C@@H]4C[C@H](O)CC[C@]4(C)[C@H]3C[C@H](O)[C@]12C)C(=O)N[C@H](C(=O)N[C@@H](Cc1ccccc1)C(=O)N[C@@H](Cc1ccccc1)C(=O)O)C(C)C [PPI-349, cholyl-Aβ15-20] | coincided with the delay in the time at which polymerization of Aβ began | 2.1 fold | >5 | 100% | >5.0 fold | Fold Increase in Lag Time (Aβ1-40; Table III, 33 mole %): 2.3 fold; Fold Increase in Lag Time (Aβ1-40; Table IV, 33 mole %): 2.6 fold |
| CC(C)C[C@H](NC(=O)[C@H](CCCCN)NC(=O)CC[C@@H](C)[C@H]1CC[C@H]2[C@@H]3[C@H](O)C[C@@H]4C[C@H](O)CC[C@]4(C)[C@H]3C[C@H](O)[C@]12C)C(=O)N[C@H](C(=O)N[C@@H](Cc1ccccc1)C(=O)N[C@@H](Cc1ccccc1)C(=O)O)C(C)C [PPI-350, cholyl-Aβ16-20] | coincided with the delay in the time at which polymerization of Aβ began | 2.4 fold | 1.8 | 72% | >5.0 fold | Fold Increase in Lag Time (Aβ1-40; Table III, 38 mole %): 3.4 fold |
| CC(C)C[C@H](NC(=O)CC[C@@H](C)[C@H]1CC[C@H]2[C@@H]3[C@H](O)C[C@@H]4C[C@H](O)CC[C@]4(C)[C@H]3C[C@H](O)[C@]12C)C(=O)N[C@H](C(=O)N[C@@H](Cc1ccccc1)C(=O)N[C@@H](Cc1ccccc1)C(=O)N[C@@H](C)C(=O)O)C(C)C [PPI-368, cholyl-Aβ17-21] | coincided with the delay in the time at which polymerization of Aβ began | – | >5 | 100% | >5.0 fold | – |
| Candidate Inhibitor 224: Aβ1-40 mutant F19F20->T19T20 | – | – | – | – | – | Effect in shaken plate assay (Aβ(1-40) peptide [1]): Increased lag; Effect in Seeded Static Assay (Aβ(1-40) peptide [2]): ++ (A strong inhibitor of aggregation. The rate of aggregation in the presence of the inhibitor was decreased compared to the control by at least 30-50%) |
| Candidate Inhibitor 233: Aβ6-20 modified with acetic acid (HDSGYEVHHQKLVFF; also: modified with acetic acid; UniProt P05067 677-691, looked up, fragment) | – | – | – | – | – | Effect in Seeded Static Assay (Aβ(1-40) peptide [2]): ++ (A strong inhibitor of aggregation. The rate of aggregation in the presence of the inhibitor was decreased compared to the control by at least 30-50%) |
| N-biotinyl-βAP1-40 | – | – | – | – | – | modulator self-aggregation (high molecular weight aggregates on gel) (β-AP1-40; N-biotinyl peptide alone, no natural β-AP): few if any high molecular weight aggregates were observed; aggregation of mixture with natural β-AP1-40 (high molecular weight aggregates on gel) (β-AP1-40; mixture of natural β-AP1-40 and modulator): reduced amounts of the peptide mixture associated into high molecular weight aggregates; aggregation of natural β-AP1-40 (turbidity: lag time, slope, plateau) (natural β-AP (β-AP1-40); modulator at 1% in natural β-AP1-40 solution): markedly inhibited; aggregation of natural β-AP1-40 (turbidity) (natural β-AP (β-AP1-40); modulator at 5% in natural β-AP1-40 solution): similarly inhibited aggregation |
